According to PMC6433685, “Histone deacetylase inhibitor LMK235 attenuates vascular constriction and aortic remodelling in hypertension” (Journal of Cellular and Molecular Medicine, 2019):

Columns and labels:
SHR aortas = test: Aortic wall thickness (H&E) in SHRs; type: in vivo, rats
From the text: For the essential hypertension animal experiment, SHRs were used. The SHR is the most used model animal model for hypertension and is generally regarded as an essential hypertension model.13 SHRs (6 weeks old, approximately 170 g) were purchased from Charles River (Yokohama, Japan). Rats were intraperitoneally administered LMK235 or vehicle every 3 days for 2 weeks (n = 4 per group). The paraffin‐embedded tissues were cut into 3‐μm‐thick sections, deparaffinized with xylene and then rehydrated with graded alcohol. Haematoxylin and eosin (H&E) staining was performed as described, with slight modifications.15 The arterial wall thickness was measured using NIS Elements Software (Nikon, Japan).

[1] = test system: angiotensin II‐induced hypertensive mice; test: Systolic BP (tail-cuff) in angiotensin II-infusion mice; type: in vivo, CD‐1 mice; settings: Ang II-infusion mice; 1 mg/kg/day i.p. for 7 days
Method: All animal procedures were approved by the Animal Experimental Committee of Chonnam National University Medical School (CNU IACUC‐H‐2014‐47) and carried out in accordance with the Guide for the Care and Use of Laboratory Animals (US National Institutes of Health Publications, 8th edition, 2011). CD‐1 mice (8 weeks old, 30‐35 g) were used in this study. Hypertension was induced by angiotensin II (Ang II, 1.3 mg/kg/day) infusion using 14‐day micro‐osmotic pumps (Alzet, model 1002; infusion rate of 0.25 μL/h) or saline alone. Ang II osmotic pumps were implanted subcutaneously after the injection of ketamine (120 mg/kg) and xylazine (6.2 mg/kg). One week after Ang II infusion, mice were administered LMK235 (1 or 3 mg/kg/day) or vehicle (dimethylsulphoxide [DMSO]) via intraperitoneal injection for 7 days. Mice were divided into three groups (n = 10‐12 per group): sham + vehicle, Ang II + vehicle, and Ang II + LMK235.
Systolic BP was measured by the tail‐cuff method (Visitech Systems, BP‐2000). Animals (mice and rats) were trained to allow for the measuring of BP before administration of the drug. Animals were trained to enter the holder at the same time more than three times a week to measure BP. For angiotensin II‐mice, systolic BP was measured when the mice were awake the day before they are killed. For SHRs, systolic BP was measured daily for 2 weeks.

rat aortic rings = test: Isometric tension: relaxation of U46619-induced contraction in rat aortic rings; parameters: species or system Sprague‐Dawley rats; settings: U46619 30 nmol/L, LMK235 cumulative 0.1-100 μmol/L
From the text: Male Sprague‐Dawley rats were purchased from Orient Bio (Gyeonggi‐do, South Korea). The thoracic aortas and mesenteric arteries were excised and immersed in an ice‐cold, modified Krebs solution composed of NaCl (115 mmol/L), KCl (4.7 mmol/L), CaCl2 (2.5 mmol/L), MgCl2 (1.2 mmol/L), NaHCO3 (25 mmol/L), KH2PO4 (1.2 mmol/L) and dextrose (10 mmol/L). Mesenteric arteries are secondary branches of the main mesenteric trunk. The aortas and mesenteric arteries were cleaned by removing adherent connective tissue, soaked in the Krebs‐bicarbonate solution and cut into four ring segments (3.5 mm in length), as described previously.14 Some rings were denuded of endothelium by gently rubbing the internal surface with the edge of the forceps. Each aortic ring was suspended in a water‐jacketed organ bath (6 mL) maintained at 37°C and aerated with a mixture of 95% O2 and 5% CO2. Each ring was connected to an isometric force transducer (Danish Myo Technology, Skejbyparken, Aarhus N, Denmark). Rings were stretched to an optimal resting tension of 2.0 g, which was maintained throughout the experiment. Each ring was equilibrated in the organ bath solution for 90 minutes before the experiment involving the contractile response to 50 mmol/L of KCl addition. […]

A10 cells = test: qRT-PCR in CaMKIIα-transfected A10 cells; type: cell-based, rat
Method: A10 cells were seeded into 12‐well dishes. A10 cells were transfected with the indicated concentrations of pCMV‐SPORT6‐CaMKIIα. After 24 hours of transfection, total RNA was extracted and quantitative real time polymerase chain reaction (qRT‐PCR) was performed. For knockdown of HDAC5, rat HDAC5 siRNA or sicontrol was used in A10 cells using RNAiMAX reagent according to the manufacturer's guidelines. A concentration of 100 nmol/L of siRNA was used.
Total RNA from aortic tissue was isolated with TRIzol reagent (Invitrogen Life Technologies), and 1 μg of RNA was used for the reverse transcription reaction with TOPscript RT DryMIX (Enzynomics, South Korea). Quantification of mRNA levels was performed with the SYBR Green PCR kit (Enzynomics, South Korea).

HDAC5 = target: T1, HDAC5 (Homo sapiens, UniProt Q9UQL6); test: HDAC5 fluorogenic enzyme assay kit (BPS Bioscience), cell-free; type: biochemical; settings: 0.001-10 μmol/L inhibitor
T1 construct: purchased BPS Bioscience 50065
T1 sequence (Q9UQL6 whole entry): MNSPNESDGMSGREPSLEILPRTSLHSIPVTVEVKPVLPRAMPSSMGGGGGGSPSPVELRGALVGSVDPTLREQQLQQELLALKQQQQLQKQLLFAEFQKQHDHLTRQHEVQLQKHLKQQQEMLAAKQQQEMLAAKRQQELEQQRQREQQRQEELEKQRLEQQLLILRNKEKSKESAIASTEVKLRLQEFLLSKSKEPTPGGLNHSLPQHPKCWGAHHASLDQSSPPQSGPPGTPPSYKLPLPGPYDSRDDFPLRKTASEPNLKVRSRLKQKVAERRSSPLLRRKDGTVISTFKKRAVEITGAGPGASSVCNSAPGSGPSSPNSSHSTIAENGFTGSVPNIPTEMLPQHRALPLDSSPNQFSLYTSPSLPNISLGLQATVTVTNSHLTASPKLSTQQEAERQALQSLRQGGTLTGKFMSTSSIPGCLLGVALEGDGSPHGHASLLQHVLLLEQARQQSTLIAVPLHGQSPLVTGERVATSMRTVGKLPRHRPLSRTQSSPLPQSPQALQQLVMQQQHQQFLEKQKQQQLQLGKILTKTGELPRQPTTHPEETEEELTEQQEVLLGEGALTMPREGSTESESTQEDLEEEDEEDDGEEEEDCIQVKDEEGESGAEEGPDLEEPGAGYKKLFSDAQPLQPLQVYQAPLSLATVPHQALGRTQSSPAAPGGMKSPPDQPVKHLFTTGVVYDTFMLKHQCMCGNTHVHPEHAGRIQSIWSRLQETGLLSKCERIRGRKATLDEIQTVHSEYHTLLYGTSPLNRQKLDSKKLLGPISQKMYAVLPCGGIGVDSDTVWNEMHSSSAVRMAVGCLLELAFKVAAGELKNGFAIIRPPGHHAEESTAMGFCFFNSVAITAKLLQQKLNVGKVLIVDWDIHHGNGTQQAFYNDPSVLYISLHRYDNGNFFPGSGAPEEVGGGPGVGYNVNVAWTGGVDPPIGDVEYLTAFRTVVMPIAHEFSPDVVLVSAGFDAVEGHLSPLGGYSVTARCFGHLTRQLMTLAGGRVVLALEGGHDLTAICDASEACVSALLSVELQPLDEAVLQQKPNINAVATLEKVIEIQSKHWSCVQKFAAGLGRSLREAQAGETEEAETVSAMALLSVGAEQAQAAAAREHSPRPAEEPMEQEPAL
Method: Enzyme activity measurements of class I and IIa HDACs were performed using a cell‐free system and according to a method previously described.16 We used fluorogenic HDAC1 (#50061), HDAC2 (#50062), HDAC3 (#50063), HDAC4 (#50064), HDAC5 (#50065), HDAC6 (#50076), HDAC7 (#50067), HDAC8 (#50068) and HDAC9 (#50069) enzyme assay kits from BPS Bioscience (San Diego, CA, USA). To test the enzyme activity of LMK235, 0.001, 0.003, 0.01, 0.03, 0.1, 0.3, 1, 3 and 10 μmol/L concentrations were used. For the IC50 calculations, every data point was normalized to the vehicle (100% activity). The normalized data were fitted with a Hill non‐linear curve fit (OrigionPro 9.0).

`Cc1cc(C)cc(C(=O)NOCCCCCC(=O)NO)c1` [LMK235] was tested, and the aortic wall thickness (SHR aortas) was “reduced”, the “systolic BP” value [1] was “sufficient to lower systolic BP” and the U46619-induced vasoconstriction (rat aortic rings; endothelium-denuded aortic rings) was “inhibited”. The U46619-induced vasoconstriction (rat aortic rings; endothelium-intact aortic rings) was “dose dependently reduced”, the “cyclin D1 mRNA levels induced by overexpression of CaMKIIα” value (A10 cells; A10 cells, 1 μmol/L, 24 h) was “reduced” and the “mRNA levels of overexpressed CaMKIIα” value (A10 cells; A10 cells, 1000 nmol/L, 24 hours) was “did not change”. The “mRNA expression of HDAC1, 2, 3, 4, 5, 7” value (A10 cells; CaMKIIα-transfected A10 cells, 1 μmol/L, 24 h) was “significantly reduced” and the IC50 (HDAC5) was greater than 20 µM.
